Calls of active or inactive are those of the source.
Assays:
[1] = target: T1, Alkaline phosphatase, tissue-nonspecific isozyme (Homo sapiens, UniProt P05186); assay: TNAP enzyme inhibition by screening hits, dose response, selectivity assay for mouse IAP inhibitor project, biochemical, human TNAP, uHTS hits (AID 488906); assay type: functional
T1 sequence (P05186 whole entry): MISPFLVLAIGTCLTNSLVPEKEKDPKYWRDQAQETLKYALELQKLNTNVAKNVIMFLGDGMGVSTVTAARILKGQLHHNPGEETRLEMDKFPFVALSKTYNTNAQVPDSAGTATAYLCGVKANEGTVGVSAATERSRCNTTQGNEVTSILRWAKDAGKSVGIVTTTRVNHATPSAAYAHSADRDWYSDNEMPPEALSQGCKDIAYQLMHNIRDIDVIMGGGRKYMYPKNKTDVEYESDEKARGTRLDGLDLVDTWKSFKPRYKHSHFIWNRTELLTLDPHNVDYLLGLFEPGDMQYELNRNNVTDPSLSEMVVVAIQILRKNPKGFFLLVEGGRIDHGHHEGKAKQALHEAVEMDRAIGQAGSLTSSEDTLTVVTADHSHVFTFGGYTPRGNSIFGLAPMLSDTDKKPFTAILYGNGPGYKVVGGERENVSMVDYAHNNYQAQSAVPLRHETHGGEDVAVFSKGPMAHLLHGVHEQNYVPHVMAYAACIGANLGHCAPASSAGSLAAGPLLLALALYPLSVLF

Beta-galactosidase = Beta-galactosidase (Escherichia coli, UniProt Q8VNN2); assay: PubChem AID 485352; assay type: functional
[2] = target: Heat shock protein HSP 90-alpha (Homo sapiens, UniProt P07900); assay type: functional, organism-based
[3] = target: Intestinal-type alkaline phosphatase (Mus musculus, UniProt P24822); assay: PubChem AID 488785; assay type: functional
[4] = target: Intestinal-type alkaline phosphatase (Homo sapiens, UniProt P09923); assay: inhibition of human intestinal alkaline phosphatase – biochemical, dose response (AID 488876); assay type: functional
[5] = target: T2, Type-1 angiotensin II receptor (Homo sapiens, UniProt P30556); assay: AT1 receptor antagonists, dose response, selectivity assay for APJ receptor antagonist project, cell-based, uHTS hits (AID 463214); assay type: functional;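 also: antagonist potency against angiotensin II stimulated AT1 response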
T2 sequence (P30556 whole entry): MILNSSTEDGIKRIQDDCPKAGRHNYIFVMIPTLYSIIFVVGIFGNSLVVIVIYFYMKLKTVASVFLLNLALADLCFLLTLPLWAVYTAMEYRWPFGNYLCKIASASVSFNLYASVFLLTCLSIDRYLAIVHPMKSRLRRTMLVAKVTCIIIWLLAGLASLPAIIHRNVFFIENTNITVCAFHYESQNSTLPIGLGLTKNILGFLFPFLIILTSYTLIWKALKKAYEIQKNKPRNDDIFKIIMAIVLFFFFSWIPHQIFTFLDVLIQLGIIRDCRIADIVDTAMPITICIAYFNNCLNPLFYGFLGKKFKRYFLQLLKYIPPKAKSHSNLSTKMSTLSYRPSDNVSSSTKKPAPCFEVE

[6] = target: DNA dC->dU-editing enzyme APOBEC-3G (Homo sapiens, UniProt Q9HC16); assay: Dose Response confirmation of small molecule APOBEC3G DNA Deaminase Inhibitors via a fluorescence-based single-stranded DNA deaminase assay. [Related pubchem assays (depositor defined):AID493012, AID493028]; assay type: functional
[7] = target: T3, Carboxy-terminal domain RNA polymerase II polypeptide A small phosphatase 1 (Homo sapiens, UniProt Q9GZU7); assay: inhibitors of CTDSP1, concentration-response testing, biochemical assay, absorbance-based, actives from ultra-high-throughput screening (AID 540297); assay type: functional
T3 sequence (Q9GZU7 whole entry): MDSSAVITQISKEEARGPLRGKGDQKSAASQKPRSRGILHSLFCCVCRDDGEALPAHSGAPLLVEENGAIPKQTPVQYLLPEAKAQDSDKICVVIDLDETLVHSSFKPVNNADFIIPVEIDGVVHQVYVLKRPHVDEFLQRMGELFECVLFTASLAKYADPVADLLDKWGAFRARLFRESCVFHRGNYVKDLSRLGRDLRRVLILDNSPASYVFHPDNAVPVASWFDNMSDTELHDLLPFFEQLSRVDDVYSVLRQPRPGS

[8] = target: T4, Small ubiquitin-related modifier 1 (Homo sapiens, UniProt P63165); assay: inhibitors of SUMO1 peptide binding, dose response, biochemical, fluorescence polarization, uHTS hits (AID 624382); assay type: functional; details: read-out: IC50_Mean
[9] = target: DNA dC->dU-editing enzyme APOBEC-3A (Homo sapiens, UniProt P31941); assay: APOBEC3A DNA deaminase inhibitors, dose response, biochemical (AID 504722); assay type: functional
[10] = target: T5, Apoptotic protease-activating factor 1 (Homo sapiens, UniProt O14727); assay: activation of Apaf-1 mediated apoptosis – fluorescent, uHTS hits, dose response (AID 588554); assay type: functional
T5 sequence (O14727 whole entry): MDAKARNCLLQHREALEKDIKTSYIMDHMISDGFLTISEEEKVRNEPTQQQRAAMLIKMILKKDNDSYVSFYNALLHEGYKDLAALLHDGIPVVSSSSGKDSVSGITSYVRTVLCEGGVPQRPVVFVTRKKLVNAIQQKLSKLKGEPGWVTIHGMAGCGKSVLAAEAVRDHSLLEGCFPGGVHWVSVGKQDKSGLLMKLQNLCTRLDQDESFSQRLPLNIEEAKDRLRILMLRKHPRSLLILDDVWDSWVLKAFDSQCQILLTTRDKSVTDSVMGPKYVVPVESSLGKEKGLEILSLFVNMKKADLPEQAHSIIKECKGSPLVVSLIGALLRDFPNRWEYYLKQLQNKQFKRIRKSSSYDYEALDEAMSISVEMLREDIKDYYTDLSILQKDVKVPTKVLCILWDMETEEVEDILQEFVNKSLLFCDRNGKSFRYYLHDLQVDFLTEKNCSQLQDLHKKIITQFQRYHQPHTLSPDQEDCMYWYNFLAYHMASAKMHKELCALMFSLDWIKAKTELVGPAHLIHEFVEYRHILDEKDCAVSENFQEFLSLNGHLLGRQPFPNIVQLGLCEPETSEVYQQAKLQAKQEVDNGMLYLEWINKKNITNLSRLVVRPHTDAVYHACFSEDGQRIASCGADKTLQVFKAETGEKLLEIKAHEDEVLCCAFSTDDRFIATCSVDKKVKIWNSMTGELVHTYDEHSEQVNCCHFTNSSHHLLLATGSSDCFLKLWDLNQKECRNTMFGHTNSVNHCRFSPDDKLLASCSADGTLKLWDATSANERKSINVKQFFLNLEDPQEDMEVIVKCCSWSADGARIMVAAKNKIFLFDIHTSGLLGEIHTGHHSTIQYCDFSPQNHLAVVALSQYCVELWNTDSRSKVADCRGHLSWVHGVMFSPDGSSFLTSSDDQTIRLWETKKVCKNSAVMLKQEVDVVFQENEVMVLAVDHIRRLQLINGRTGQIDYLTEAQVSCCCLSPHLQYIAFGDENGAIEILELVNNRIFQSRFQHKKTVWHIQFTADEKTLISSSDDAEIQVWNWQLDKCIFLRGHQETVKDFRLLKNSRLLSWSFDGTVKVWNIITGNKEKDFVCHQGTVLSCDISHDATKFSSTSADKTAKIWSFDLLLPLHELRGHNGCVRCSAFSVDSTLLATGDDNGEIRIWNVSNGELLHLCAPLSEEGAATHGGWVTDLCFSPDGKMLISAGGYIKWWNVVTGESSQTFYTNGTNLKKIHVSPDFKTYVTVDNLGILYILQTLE

[11] = target: T4, Small ubiquitin-related modifier 1; assay: inhibitors of SUMO1 partner interactions, dose response, biochemical, FRET (AID 624383); assay type: functional; details: read-out: IC50_Mean

T4 sequence (P63165 whole entry): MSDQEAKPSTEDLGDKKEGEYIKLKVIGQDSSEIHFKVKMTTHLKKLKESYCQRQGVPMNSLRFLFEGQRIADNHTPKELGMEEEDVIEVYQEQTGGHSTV
Sequence of Intestinal-type alkaline phosphatase (Mus musculus, UniProt P24822) (P24822 whole entry): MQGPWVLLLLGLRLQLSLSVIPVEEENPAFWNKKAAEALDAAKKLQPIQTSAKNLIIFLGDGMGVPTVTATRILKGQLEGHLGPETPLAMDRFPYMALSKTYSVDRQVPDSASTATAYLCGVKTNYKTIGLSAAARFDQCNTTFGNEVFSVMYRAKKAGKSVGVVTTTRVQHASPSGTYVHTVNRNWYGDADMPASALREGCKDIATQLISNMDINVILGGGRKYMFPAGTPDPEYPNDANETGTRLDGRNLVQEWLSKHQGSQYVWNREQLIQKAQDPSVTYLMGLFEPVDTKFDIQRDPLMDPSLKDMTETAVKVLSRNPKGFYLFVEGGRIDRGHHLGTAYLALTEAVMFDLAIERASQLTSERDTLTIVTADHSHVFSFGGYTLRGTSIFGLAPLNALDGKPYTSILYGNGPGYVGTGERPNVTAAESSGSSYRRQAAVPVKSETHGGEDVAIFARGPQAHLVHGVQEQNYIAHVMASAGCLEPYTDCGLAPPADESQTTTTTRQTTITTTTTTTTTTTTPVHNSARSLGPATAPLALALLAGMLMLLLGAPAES
Sequence of Beta-galactosidase (Q8VNN2 whole entry): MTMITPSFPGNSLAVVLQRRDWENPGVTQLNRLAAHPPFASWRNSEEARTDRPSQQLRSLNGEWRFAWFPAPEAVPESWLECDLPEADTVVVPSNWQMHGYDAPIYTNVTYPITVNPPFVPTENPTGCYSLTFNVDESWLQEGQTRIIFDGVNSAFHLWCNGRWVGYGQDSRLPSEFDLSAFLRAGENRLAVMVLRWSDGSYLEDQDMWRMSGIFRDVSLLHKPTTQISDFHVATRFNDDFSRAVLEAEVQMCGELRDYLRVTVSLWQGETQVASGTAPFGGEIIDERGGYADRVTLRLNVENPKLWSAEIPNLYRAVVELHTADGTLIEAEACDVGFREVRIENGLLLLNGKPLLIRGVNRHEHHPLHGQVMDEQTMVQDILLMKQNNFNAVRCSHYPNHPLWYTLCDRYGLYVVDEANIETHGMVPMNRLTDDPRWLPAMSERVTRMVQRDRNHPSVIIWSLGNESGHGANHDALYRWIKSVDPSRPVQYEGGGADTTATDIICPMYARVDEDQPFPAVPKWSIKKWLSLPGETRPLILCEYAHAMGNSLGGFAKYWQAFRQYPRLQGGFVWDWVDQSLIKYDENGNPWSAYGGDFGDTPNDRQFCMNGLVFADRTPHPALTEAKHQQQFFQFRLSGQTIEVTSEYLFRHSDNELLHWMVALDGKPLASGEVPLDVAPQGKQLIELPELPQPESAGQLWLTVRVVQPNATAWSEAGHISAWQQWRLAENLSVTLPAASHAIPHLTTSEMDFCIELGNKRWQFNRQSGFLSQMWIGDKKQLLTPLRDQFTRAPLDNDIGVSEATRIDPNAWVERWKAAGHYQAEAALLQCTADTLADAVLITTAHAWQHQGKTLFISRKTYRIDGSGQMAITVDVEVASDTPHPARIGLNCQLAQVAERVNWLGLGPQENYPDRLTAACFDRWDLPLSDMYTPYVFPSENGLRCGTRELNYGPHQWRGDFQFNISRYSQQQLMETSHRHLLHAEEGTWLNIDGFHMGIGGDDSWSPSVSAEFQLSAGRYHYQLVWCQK
Sequence of DNA dC->dU-editing enzyme APOBEC-3A (P31941 whole entry): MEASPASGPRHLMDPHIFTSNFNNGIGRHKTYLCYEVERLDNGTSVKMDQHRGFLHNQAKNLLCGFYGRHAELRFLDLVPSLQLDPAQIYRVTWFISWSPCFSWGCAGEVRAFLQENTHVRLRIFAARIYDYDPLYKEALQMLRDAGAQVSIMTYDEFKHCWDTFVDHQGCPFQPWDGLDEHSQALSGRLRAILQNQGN
Sequence of DNA dC->dU-editing enzyme APOBEC-3G (Q9HC16 whole entry, the tested form may be a part): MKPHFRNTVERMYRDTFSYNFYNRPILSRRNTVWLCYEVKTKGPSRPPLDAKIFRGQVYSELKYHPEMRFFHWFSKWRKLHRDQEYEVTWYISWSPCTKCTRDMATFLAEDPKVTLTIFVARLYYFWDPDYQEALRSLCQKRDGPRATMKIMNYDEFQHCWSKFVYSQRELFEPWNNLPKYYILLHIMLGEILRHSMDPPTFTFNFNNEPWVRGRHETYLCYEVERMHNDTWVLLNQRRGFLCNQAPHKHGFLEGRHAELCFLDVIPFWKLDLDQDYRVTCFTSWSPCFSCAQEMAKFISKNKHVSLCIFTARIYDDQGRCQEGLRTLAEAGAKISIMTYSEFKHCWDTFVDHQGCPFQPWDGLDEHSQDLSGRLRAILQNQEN
Sequence of Intestinal-type alkaline phosphatase (Homo sapiens, UniProt P09923) (P09923 whole entry): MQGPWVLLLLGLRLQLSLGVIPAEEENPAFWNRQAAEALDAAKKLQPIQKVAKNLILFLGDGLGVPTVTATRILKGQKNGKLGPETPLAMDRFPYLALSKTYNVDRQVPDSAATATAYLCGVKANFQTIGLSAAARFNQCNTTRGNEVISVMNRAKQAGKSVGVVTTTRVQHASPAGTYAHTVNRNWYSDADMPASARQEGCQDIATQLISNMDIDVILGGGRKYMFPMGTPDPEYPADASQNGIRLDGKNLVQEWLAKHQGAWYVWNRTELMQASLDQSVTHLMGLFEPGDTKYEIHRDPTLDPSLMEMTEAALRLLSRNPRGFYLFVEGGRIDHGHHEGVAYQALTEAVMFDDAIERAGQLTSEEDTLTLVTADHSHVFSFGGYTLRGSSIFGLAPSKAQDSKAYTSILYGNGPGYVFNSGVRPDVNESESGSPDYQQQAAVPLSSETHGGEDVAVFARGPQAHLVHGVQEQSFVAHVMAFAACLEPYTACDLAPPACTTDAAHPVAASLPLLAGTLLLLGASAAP

Row | IC50 [1] | EC50 (Beta-galactosidase) | AC50 [2] | IC50 [3] | IC50 [4] | IC50 [5] | Compound | IC50 [6] | IC50 [7] | IC50 [8] | IC50 [9] | EC50 [10] | IC50 [11]
1 | > 100 µM (inactive) | > 40 µM (inactive) | 1.01 µM (active) | 13 µM (active) | > 100 µM (inactive) | 10.4 µM (active) | COc1cc(/C=C/[N+](=O)[O-])ccc1OC(=O)c1cc2ccccc2oc1=O | – | – | – | – | – | –
2 | – | – | – | – | – | – | C=C(C)C(=O)Nc1cccc(C2=NOC3(C2)C[C@@H](C(N)=O)N(C(=O)c2cc([N+](=O)[O-])cc([N+](=O)[O-])c2C)C3)c1 (some centres not stated) | 14 µM (active) | 4.59 µM (active) | > 66.6 µM (inactive) | > 100 µM (inactive) | 10.8 µM (active) | 8.54 µM (active)

From ChEMBL document CHEMBL1201862, “PubChem BioAssay data set” (2004)
